According to ChEMBL document CHEMBL3608288, “Novel Chalcone-Thiazole Hybrids as Potent Inhibitors of Drug Resistant Staphylococcus aureus” (ACS Med Chem Lett, 2015):
Values after ≈ are worked out from the molar mass of the structure shown.

Experiments:
Escherichia coli = assay: Antibacterial activity against Escherichia coli ATCC 9637 after 16 hrs by microtiter broth dilution method; format: functional; conditions: W
Pseudomonas aeruginosa = assay: Antibacterial activity against Pseudomonas aeruginosa ATCC BAA-427 after 16 hrs by microtiter broth dilution method; format: functional
Staphylococcus aureus [1] = assay: Antibacterial activity against Staphylococcus aureus ATCC 25923 after 16 hrs by microtiter broth dilution method; format: functional
Staphylococcus aureus [2] = assay: Antibacterial activity against methicillin-resistant Staphylococcus aureus ATCC 700699 after 16 hrs by microtiter broth dilution method; format: functional
Staphylococcus aureus [3] = assay: Antibacterial activity against […] Staphylococcus aureus ATCC 29213 after 16 hrs by microtiter broth dilution method; format: functional
Staphylococcus aureus [4] = assay: Antibacterial activity against methicillin/gentamicin-resistant Staphylococcus aureus ATCC 33592 after 16 hrs by microtiter broth dilution method; format: functional
Klebsiella pneumoniae = assay: Antibacterial activity against Klebsiella pneumoniae ATCC 27736 after 16 hrs by microtiter broth dilution method; format: functional
Candida albicans = assay: Antifungal activity against Candida albicans after 16 hrs by microtiter broth dilution method; format: functional
Cryptococcus neoformans = assay: Antifungal activity against Cryptococcus neoformans after 16 hrs by microtiter broth dilution method; format: functional
Sporothrix schenckii = assay: Antifungal activity against Sporothrix schenckii after 16 hrs by microtiter broth dilution method; format: functional
[5] = test system: Trichophyton mentagrophytes; assay: Antifungal activity against Trichophyton mentagrophytes after 16 hrs by microtiter broth dilution method; format: functional
Aspergillus fumigatus = assay: Antifungal activity against Aspergillus fumigatus after 16 hrs by microtiter broth dilution method; format: functional
Candida parapsilosis = assay: Antifungal activity against Candida parapsilosis ATCC 22019 after 16 hrs by microtiter broth dilution method; format: functional
[6] = Hemolytic activity in human RBC at 100 ug/ml after 1 hr; conditions: erythrocyte
[7] = Lodderomyces parapsilosis, ATCC 22019, 16 h

Row | Molecule | MIC (Escherichia coli) | MIC (Pseudomonas aeruginosa; ATCC BAA-427, 16 h) | MIC (Staphylococcus aureus [1]; ATCC 25923, 16 h) | MIC (Staphylococcus aureus [2]; ATCC 700699, 16 h) | MIC (Staphylococcus aureus [3]; ATCC 29213, 16 h) | MIC (Staphylococcus aureus [4]; ATCC 33592, 16 h) | MIC (Klebsiella pneumoniae; ATCC 27736, 16 h) | MIC (Candida albicans) | MIC (Cryptococcus neoformans) | MIC (Sporothrix schenckii) | MIC [5] | MIC (Aspergillus fumigatus) | MIC (Candida parapsilosis; [7]) | Activity [6] | other results
1 | COc1ccc(C(=O)/C=C/c2cc(/C=N/c3nc(-c4ccc(OC)c(OC)c4)cs3)c(O)c(C(C)(C)C)c2)cc1 | > 89.8 µM | > 89.8 µM | 11.2 µM (≈ 6.23 µg/mL) | 11.2 µM (≈ 6.23 µg/mL) | 11.2 µM (≈ 6.23 µg/mL) | 5.6 µM (≈ 3.12 µg/mL) | > 89.8 µM | > 89.8 µM | > 89.8 µM | > 89.8 µM | > 89.8 µM | > 89.8 µM | > 89.8 µM | Non-toxic | –
2 | CCOC(=O)c1csc(/N=C/c2cc(/C=C/C(=O)c3cccs3)cc(C(C)(C)C)c2O)n1 | > 107 µM | > 107 µM | 13.3 µM (≈ 6.23 µg/mL) | 13.3 µM (≈ 6.23 µg/mL) | 6.7 µM (≈ 3.14 µg/mL) | 3.3 µM (≈ 1.55 µg/mL) | > 107 µM | > 107 µM | > 107 µM | > 107 µM | > 107 µM | > 107 µM | > 107 µM | Non-toxic | –
3 | CCOC(=O)c1csc(/N=C/c2cc(/C=C/C(=O)c3cccs3)cc(C(C)C)c2O)n1 | > 110 µM | > 110 µM | 27.5 µM (≈ 12.5 µg/mL) | 27.5 µM (≈ 12.5 µg/mL) | 27.5 µM (≈ 12.5 µg/mL) | 13.7 µM (≈ 6.23 µg/mL) | > 110 µM | > 110 µM | > 110 µM | > 110 µM | > 110 µM | > 110 µM | > 110 µM | Non-toxic | –
4 | CCOC(=O)c1csc(/N=C/c2cc(/C=C/C(=O)c3ccc(OC)cc3)cc(C(C)C)c2O)n1 | > 104 µM | > 104 µM | 26.1 µM (≈ 12.5 µg/mL) | 26.1 µM (≈ 12.5 µg/mL) | 26.1 µM (≈ 12.5 µg/mL) | 26.1 µM (≈ 12.5 µg/mL) | > 104 µM | > 104 µM | > 104 µM | > 104 µM | > 104 µM | > 104 µM | > 104 µM | Non-toxic | –
5 | CN[C@H](CC(C)C)C(=O)N[C@H]1C(=O)N[C@@H](CC(N)=O)C(=O)N[C@H]2C(=O)N[C@H]3C(=O)N[C@H](C(=O)N[C@H](C(=O)O)c4cc(O)cc(O)c4-c4cc3ccc4O)[C@H](O)c3ccc(c(Cl)c3)Oc3cc2cc(c3O[C@@H]2O[C@H](CO)[C@@H](O)[C@H](O)[C@H]2O[C@H]2C[C@](C)(N)[C@H](O)[C@H](C)O2)Oc2ccc(cc2Cl)[C@H]1O [VANCOMYCIN] | > 157 µM | > 157 µM | 2.4 µM (≈ 3.48 µg/mL) | 9.8 µM (≈ 14.2 µg/mL) | 1.2 µM (≈ 1.74 µg/mL) | 2.4 µM (≈ 3.48 µg/mL) | > 157 µM | > 157 µM | 157 µM (≈ 227 µg/mL) | 157 µM (≈ 227 µg/mL) | 157 µM (≈ 227 µg/mL) | 157 µM (≈ 227 µg/mL) | 157 µM (≈ 227 µg/mL) | – | –
6 | CCOC(=O)c1csc(/N=C/c2cc(/C=C/C(=O)c3ccc(C)cc3)cc(C(C)C)c2O)n1 | > 108 µM | > 108 µM | 27 µM (≈ 12.5 µg/mL) | 13.5 µM (≈ 6.24 µg/mL) | 13.5 µM (≈ 6.24 µg/mL) | 13.5 µM (≈ 6.24 µg/mL) | > 108 µM | > 108 µM | > 108 µM | > 108 µM | > 108 µM | > 108 µM | > 108 µM | Non-toxic | –
7 | C[C@@H]1[C@H](O)[C@@H](C)/C=C/C=C/C=C/C=C/C=C/C=C/C=C/[C@H](O[C@@H]2O[C@H](C)[C@@H](O)[C@H](N)[C@@H]2O)C[C@@H]2O[C@](O)(C[C@@H](O)C[C@@H](O)[C@H](O)CC[C@@H](O)C[C@@H](O)CC(=O)O[C@H]1C)C[C@H](O)[C@H]2C(=O)O [AMPHOTERICIN B] | > 54.1 µM | > 54.1 µM | > 54.1 µM | > 54.1 µM | > 54.1 µM | > 54.1 µM | > 54.1 µM | – | 0.1 µM (≈ 0.0924 µg/mL) | 0.3 µM (≈ 0.277 µg/mL) | 0.3 µM (≈ 0.277 µg/mL) | 0.5 µM (≈ 0.462 µg/mL) | – | – | –
8 | COc1ccc(C(=O)/C=C/c2cc(/C=N/c3nc(-c4ccc(OC)cc4)cs3)c(O)c(C(C)(C)C)c2)cc1 | > 94.9 µM | > 94.9 µM | 11.9 µM (≈ 6.27 µg/mL) | 11.9 µM (≈ 6.27 µg/mL) | 11.9 µM (≈ 6.27 µg/mL) | 3 µM (≈ 1.58 µg/mL) | > 94.9 µM | > 94.9 µM | > 94.9 µM | > 94.9 µM | > 94.9 µM | > 94.9 µM | > 94.9 µM | Non-toxic | –
9 | COc1ccc(-c2csc(/N=C/c3cc(/C=C/C(=O)c4ccc(C)cc4)cc(C(C)(C)C)c3O)n2)cc1 | > 97.9 µM | > 97.9 µM | 12.2 µM (≈ 6.23 µg/mL) | 12.2 µM (≈ 6.23 µg/mL) | 12.2 µM (≈ 6.23 µg/mL) | 12.2 µM (≈ 6.23 µg/mL) | > 97.9 µM | > 97.9 µM | > 97.9 µM | > 97.9 µM | > 97.9 µM | > 97.9 µM | > 97.9 µM | Non-toxic | –
10 | CCOC(=O)c1csc(/N=C/c2cc(/C=C/C(=O)c3ccco3)cc(C(C)(C)C)c2O)n1 | > 110 µM | > 110 µM | 13.8 µM (≈ 6.24 µg/mL) | 13.8 µM (≈ 6.24 µg/mL) | 13.8 µM (≈ 6.24 µg/mL) | 13.8 µM (≈ 6.24 µg/mL) | > 110 µM | > 110 µM | > 110 µM | > 110 µM | > 110 µM | > 110 µM | > 110 µM | Non-toxic | –
11 | COc1ccc(-c2csc(/N=C/c3cc(/C=C/C(=O)c4cccs4)cc(C(C)(C)C)c3O)n2)cc1OC | > 93.9 µM | > 93.9 µM | 23.5 µM (≈ 12.5 µg/mL) | 11.7 µM (≈ 6.23 µg/mL) | 11.7 µM (≈ 6.23 µg/mL) | 11.7 µM (≈ 6.23 µg/mL) | > 93.9 µM | > 93.9 µM | > 93.9 µM | > 93.9 µM | > 93.9 µM | > 93.9 µM | > 93.9 µM | Non-toxic | –
12 | GENTAMICIN | 6.5 µM | – | – | – | – | – | – | > 105 µM | 105 µM | 105 µM | 105 µM | 105 µM | – | – | MIC (Pseudomonas aeruginosa): 1.6 µM; MIC (Staphylococcus aureus [1]): 1.6 µM; MIC (Staphylococcus aureus [2]): 105 µM; MIC (Staphylococcus aureus [3]): 3.3 µM; MIC (Staphylococcus aureus [4]): 105 µM; MIC (Klebsiella pneumoniae): 3.3 µM; MIC (Candida parapsilosis): 105 µM
13 | CCn1cc(C(=O)O)c(=O)c2cc(F)c(N3CCNCC3)cc21 [NORFLOXACIN] | – | 1 µM (≈ 0.319 µg/mL) | 0.5 µM (≈ 0.16 µg/mL) | 33.6 µM (≈ 10.7 µg/mL) | 1 µM (≈ 0.319 µg/mL) | 0.5 µM (≈ 0.16 µg/mL) | 0.1 µM (≈ 0.0319 µg/mL) | > 33.6 µM | 33.6 µM (≈ 10.7 µg/mL) | 33.6 µM (≈ 10.7 µg/mL) | 33.6 µM (≈ 10.7 µg/mL) | 33.6 µM (≈ 10.7 µg/mL) | 33.6 µM (≈ 10.7 µg/mL) | – | –
14 | OC(Cn1cncn1)(Cn1cncn1)c1ccc(F)cc1F [FLUCONAZOLE] | > 34.5 µM | > 34.5 µM | > 34.5 µM | > 34.5 µM | > 34.5 µM | > 34.5 µM | > 34.5 µM | 0.7 µM (≈ 0.214 µg/mL) | 1.4 µM (≈ 0.429 µg/mL) | 1.4 µM (≈ 0.429 µg/mL) | 22.1 µM (≈ 6.77 µg/mL) | 22.1 µM (≈ 6.77 µg/mL) | 1.4 µM (≈ 0.429 µg/mL) | – | –
